# Assays:
# Format in all cases: in vivo
# [1] = system: redroot pigweed (Amaranthus retroflexus, AMARE); test: Pre-emerge test, greenhouse herbicide activity screening; conditions: for Pre-emerge Herbicidal Activity, phytotoxicity rating (0-100), AMARE: rated 14 days after application, 0 = no damage, 100 = complete death; for Pre-emerge Herbicidal Activity AMARE: phytotoxicity rating 0-100, 14 days after application
# Procedure, shortened: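 Plants grown in 10 cm pots of sandy loam mix received acetone-dissolved compounds through a moving flat-fan nozzle. Doses ranged from 15 to 1000 g ai/ha. Pre-emerge pots were seeded one day earlier, post-emerge pots 8–21 days earlier. Fourteen days on, each pot was graded 0–100 for damage.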
# [2] = system: upland rice (Oryza sp., var. Tebonnet, RICE); test: Pre-emerge test, crop safety; conditions: for Pre-emerge phytotoxicity rating (0-100), crop damage, RICE: rated 14 days after application, 0 = no damage, 100 = complete death; for Pre-emerge Herbicidal Activity RICE: crop damage rating 0-100, 14 days after application
# Procedure, shortened: (§1)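 Applied at 15–1000 g ai/ha from acetone in 187 l/ha spray volume. Post-emergence applications included 0.25% v/v non-ionic surfactant and reached plants sown 8–21 days before. Pre-emergence applications were incorporated by surface watering. Efficacy or crop damage was rated on a 0–100 scale after 14 days.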
# [3] = system: field corn (Zea mays L., var. Dekalb 535, CORN); test: Pre-emerge test, crop safety; conditions: for Pre-emerge phytotoxicity rating (0-100), crop damage, CORN: rated 14 days after application, 0 = no damage, 100 = complete death; for Pre-emerge Herbicidal Activity CORN: crop damage rating 0-100, 14 days after application
# Procedure, shortened: as §1
# [4] = system: lambsquarters (Chenopodium album, CHEAL); test: Post-emerge test, greenhouse herbicide activity screening; conditions: post-emerge, 14 days after application, rating scale 0-100
# Procedure, shortened: (§2)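 Herbicidal damage is scored 0 (none) to 100 (complete plant death) two weeks after a simulated field spray. Rates span 15–1000 g ai/ha, delivered in acetone at 187 l/ha. For post-emergence treatments, plants have 2–3 leaves and the spray carries 0.25% v/v non-ionic surfactant.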
# [5] = system: barnyardgrass (Echinochloa crus-galli, ECHCG); test: as above; conditions: post-emerge, 14 days after application, rating scale 0-100
# Procedure, shortened: as §2
# [6] = system: green foxtail (Setaria viridis, SETVI); test: as above; conditions: post-emerge, 14 days after application, rating scale 0-100
# Procedure, shortened: as §2
# [7] = system: johnsongrass (Sorghum halepense, SORHA); test: as above; conditions: post-emerge, 14 days after application, rating scale 0-100
# Procedure, shortened: as §2
# [8] = system: ivyleaf morningglory (Ipomoea hederacea, IPOHE); test: as above; conditions: post-emerge, 14 days after application, rating scale 0-100
# Procedure, shortened: as §2
# [9] = system: large crabgrass (Digitaria sanguinalis, DIGSA); test: as above; conditions: post-emerge, 14 days after application, rating scale 0-100
# Procedure, shortened: as §2
# [10] = system: sicklepod (Cassia obtusifolia, CASOB); test: as above; conditions: post-emerge, 14 days after application, rating scale 0-100
# Procedure, shortened: as §2
# [11] = system: redroot pigweed (Amaranthus retroflexus, AMARE); test: as above; conditions: post-emerge, 14 days after application, rating scale 0-100
# Procedure, shortened: as §2
# [12] = system: velvetleaf (Abutilon theophrasti, ABUTH); test: as above; conditions: post-emerge, 14 days after application, rating scale 0-100
# Procedure, shortened: as §2
# [13] = system: upland rice (Oryza sp., var. Tebonnet, RICE); test: Post-emerge test, crop safety; conditions: post-emerge, 14 days after application, rating scale 0-100
# Procedure, shortened: (§3)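 Sandy loam pots; pre-emerge: sown 1 d pre-spray, surface-watered after, then bottom-watered. Post-emerge: sown 8–21 d before, 2–3 leaf stage, + 0.25% v/v NIS, bottom-watered. Acetone, 187 l/ha track spray, 15–1000 g ai/ha. 0–100 injury score, day 14.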
# [14] = system: field corn (Zea mays L., var. Dekalb 535, CORN); test: Post-emerge test, crop safety; conditions: post-emerge, 14 days after application, rating scale 0-100
# Procedure, shortened: as §3
# [15] = system: lambsquarters (Chenopodium album, CHEAL); test: Pre-emerge test, greenhouse herbicide activity screening; conditions: for Pre-emerge Herbicidal Activity, phytotoxicity rating (0-100), CHEAL: rated 14 days after application, 0 = no damage, 100 = complete death; for Pre-emerge Herbicidal Activity CHEAL: phytotoxicity rating 0-100, 14 days after application
# Procedure, shortened: as §3
# [16] = system: barnyardgrass (Echinochloa crus-galli, ECHCG); test: as above; conditions: for Pre-emerge Herbicidal Activity, phytotoxicity rating (0-100), ECHCG: rated 14 days after application, 0 = no damage, 100 = complete death; for Pre-emerge Herbicidal Activity ECHCG: phytotoxicity rating 0-100, 14 days after application
# Procedure, shortened: as §3
# [17] = system: green foxtail (Setaria viridis, SETVI); test: as above; conditions: for Pre-emerge Herbicidal Activity, phytotoxicity rating (0-100), SETVI: rated 14 days after application, 0 = no damage, 100 = complete death; for Pre-emerge Herbicidal Activity SETVI: phytotoxicity rating 0-100, 14 days after application
# Procedure, shortened: as §3
# [18] = system: johnsongrass (Sorghum halepense, SORHA); test: as above; conditions: for Pre-emerge Herbicidal Activity, phytotoxicity rating (0-100), SORHA: rated 14 days after application, 0 = no damage, 100 = complete death; for Pre-emerge Herbicidal Activity SORHA: phytotoxicity rating 0-100, 14 days after application
# Procedure, shortened: as §3
# [19] = system: ivyleaf morningglory (Ipomoea hederacea, IPOHE); test: as above; conditions: for Pre-emerge Herbicidal Activity, phytotoxicity rating (0-100), IPOHE: rated 14 days after application, 0 = no damage, 100 = complete death; for Pre-emerge Herbicidal Activity IPOHE: phytotoxicity rating 0-100, 14 days after application
# Procedure, shortened: as §3
# [20] = system: large crabgrass (Digitaria sanguinalis, DIGSA); test: as above; conditions: for Pre-emerge Herbicidal Activity, phytotoxicity rating (0-100), DIGSA: rated 14 days after application, 0 = no damage, 100 = complete death; for Pre-emerge Herbicidal Activity DIGSA: phytotoxicity rating 0-100, 14 days after application
# Procedure, shortened: as §3
# [21] = system: sicklepod (Cassia obtusifolia, CASOB); test: as above; conditions: for Pre-emerge Herbicidal Activity, phytotoxicity rating (0-100), CASOB: rated 14 days after application, 0 = no damage, 100 = complete death; for Pre-emerge Herbicidal Activity CASOB: phytotoxicity rating 0-100, 14 days after application
# Procedure, shortened: as §3
# [22] = system: velvetleaf (Abutilon theophrasti, ABUTH); test: as above; conditions: for Pre-emerge Herbicidal Activity, phytotoxicity rating (0-100), ABUTH: rated 14 days after application, 0 = no damage, 100 = complete death; for Pre-emerge Herbicidal Activity ABUTH: phytotoxicity rating 0-100, 14 days after application
# Procedure, shortened: as §3
smiles,measurement,setting,value
COc1c(Cl)cc(F)c(-n2c(=O)cc(C(F)(F)F)n(C)c2=O)c1NC(=O)c1ccc2ccccc2c1 [2-75],"Pre-emerge Herbicidal Activity, phytotoxicity rating (0-100), AMARE",[1]; 63 g ai/ha,100
same,"Pre-emerge Herbicidal Activity, phytotoxicity rating (0-100), AMARE",[1]; 250 g ai/ha,100
same,"Pre-emerge phytotoxicity rating (0-100), crop damage, RICE",[2]; 63 g ai/ha,30
same,"Pre-emerge phytotoxicity rating (0-100), crop damage, RICE",[2]; 250 g ai/ha,80
same,"Pre-emerge phytotoxicity rating (0-100), crop damage, CORN",[3]; 63 g ai/ha,0
same,"Pre-emerge phytotoxicity rating (0-100), crop damage, CORN",[3]; 250 g ai/ha,0
same,phytotoxicity rating CHEAL,[4]; 63 g ai/ha,100
same,phytotoxicity rating CHEAL,[4]; 250 g ai/ha,100
same,phytotoxicity rating ECHCG,[5]; 63 g ai/ha,10
same,phytotoxicity rating ECHCG,[5]; 250 g ai/ha,50
same,phytotoxicity rating SETVI,[6]; 63 g ai/ha,30
same,phytotoxicity rating SETVI,[6]; 250 g ai/ha,80
same,phytotoxicity rating SORHA,[7]; 63 g ai/ha,20
same,phytotoxicity rating SORHA,[7]; 250 g ai/ha,40
same,phytotoxicity rating IPOHE,[8]; 63 g ai/ha,100
same,phytotoxicity rating IPOHE,[8]; 250 g ai/ha,100
same,phytotoxicity rating DIGSA,[9]; 63 g ai/ha,0
same,phytotoxicity rating DIGSA,[9]; 250 g ai/ha,20
same,phytotoxicity rating CASOB,[10]; 63 g ai/ha,100
same,phytotoxicity rating CASOB,[10]; 250 g ai/ha,100
same,phytotoxicity rating AMARE,[11]; 63 g ai/ha,100
same,phytotoxicity rating AMARE,[11]; 250 g ai/ha,100
same,phytotoxicity rating ABUTH,[12]; 63 g ai/ha,100
same,phytotoxicity rating ABUTH,[12]; 250 g ai/ha,100
same,phytotoxicity rating RICE,[13]; 63 g ai/ha,70
same,phytotoxicity rating RICE,[13]; 250 g ai/ha,80
same,phytotoxicity rating CORN,[14]; 63 g ai/ha,10
same,phytotoxicity rating CORN,[14]; 250 g ai/ha,15
same,"Pre-emerge Herbicidal Activity, phytotoxicity rating (0-100), CHEAL",[15]; 63 g ai/ha,100
same,"Pre-emerge Herbicidal Activity, phytotoxicity rating (0-100), CHEAL",[15]; 250 g ai/ha,100
same,"Pre-emerge Herbicidal Activity, phytotoxicity rating (0-100), ECHCG",[16]; 63 g ai/ha,20
same,"Pre-emerge Herbicidal Activity, phytotoxicity rating (0-100), ECHCG",[16]; 250 g ai/ha,100
same,"Pre-emerge Herbicidal Activity, phytotoxicity rating (0-100), SETVI",[17]; 63 g ai/ha,100
same,"Pre-emerge Herbicidal Activity, phytotoxicity rating (0-100), SETVI",[17]; 250 g ai/ha,100
same,"Pre-emerge Herbicidal Activity, phytotoxicity rating (0-100), SORHA",[18]; 63 g ai/ha,20
same,"Pre-emerge Herbicidal Activity, phytotoxicity rating (0-100), SORHA",[18]; 250 g ai/ha,60
same,"Pre-emerge Herbicidal Activity, phytotoxicity rating (0-100), IPOHE",[19]; 63 g ai/ha,20
same,"Pre-emerge Herbicidal Activity, phytotoxicity rating (0-100), IPOHE",[19]; 250 g ai/ha,60
same,"Pre-emerge Herbicidal Activity, phytotoxicity rating (0-100), DIGSA",[20]; 63 g ai/ha,70
same,"Pre-emerge Herbicidal Activity, phytotoxicity rating (0-100), DIGSA",[20]; 250 g ai/ha,100
same,"Pre-emerge Herbicidal Activity, phytotoxicity rating (0-100), CASOB",[21]; 63 g ai/ha,100
same,"Pre-emerge Herbicidal Activity, phytotoxicity rating (0-100), CASOB",[21]; 250 g ai/ha,100
same,"Pre-emerge Herbicidal Activity, phytotoxicity rating (0-100), ABUTH",[22]; 63 g ai/ha,100
same,"Pre-emerge Herbicidal Activity, phytotoxicity rating (0-100), ABUTH",[22]; 250 g ai/ha,100
CCOC(=O)COc1c(Cl)cc(F)c(-n2c(=O)cc(C(F)(F)F)n(C)c2=O)c1NC(=O)c1ccc2ccccc2c1 [2-189],Pre-emerge Herbicidal Activity AMARE,[1]; 40.5 g ai/ha,95
same,Pre-emerge Herbicidal Activity AMARE,[1]; 162 g ai/ha,90
same,Pre-emerge Herbicidal Activity RICE,[2]; 40.5 g ai/ha,0
same,Pre-emerge Herbicidal Activity RICE,[2]; 162 g ai/ha,0
same,Pre-emerge Herbicidal Activity CORN,[3]; 40.5 g ai/ha,0
same,Pre-emerge Herbicidal Activity CORN,[3]; 162 g ai/ha,0
same,CHEAL phytotoxicity rating,[4]; 40.5 g ai/ha,100
same,CHEAL phytotoxicity rating,[4]; 162 g ai/ha,100
same,ECHCG phytotoxicity rating,[5]; 40.5 g ai/ha,0
same,ECHCG phytotoxicity rating,[5]; 162 g ai/ha,10
same,SETVI phytotoxicity rating,[6]; 40.5 g ai/ha,0
same,SETVI phytotoxicity rating,[6]; 162 g ai/ha,0
same,SORHA phytotoxicity rating,[7]; 40.5 g ai/ha,0
same,SORHA phytotoxicity rating,[7]; 162 g ai/ha,0
same,IPOHE phytotoxicity rating,[8]; 40.5 g ai/ha,60
same,IPOHE phytotoxicity rating,[8]; 162 g ai/ha,100
same,DIGSA phytotoxicity rating,[9]; 40.5 g ai/ha,0
same,DIGSA phytotoxicity rating,[9]; 162 g ai/ha,0
same,CASOB phytotoxicity rating,[10]; 40.5 g ai/ha,40
same,CASOB phytotoxicity rating,[10]; 162 g ai/ha,60
same,AMARE phytotoxicity rating,[11]; 40.5 g ai/ha,100
same,AMARE phytotoxicity rating,[11]; 162 g ai/ha,100
same,ABUTH phytotoxicity rating,[12]; 40.5 g ai/ha,85
same,ABUTH phytotoxicity rating,[12]; 162 g ai/ha,100
same,RICE phytotoxicity rating (crop damage),[13]; 40.5 g ai/ha,0
same,RICE phytotoxicity rating (crop damage),[13]; 162 g ai/ha,5
same,CORN phytotoxicity rating (crop damage),[14]; 40.5 g ai/ha,0
same,CORN phytotoxicity rating (crop damage),[14]; 162 g ai/ha,5
same,Pre-emerge Herbicidal Activity CHEAL,[15]; 40.5 g ai/ha,100
same,Pre-emerge Herbicidal Activity CHEAL,[15]; 162 g ai/ha,100
same,Pre-emerge Herbicidal Activity ECHCG,[16]; 40.5 g ai/ha,0
same,Pre-emerge Herbicidal Activity ECHCG,[16]; 162 g ai/ha,0
same,Pre-emerge Herbicidal Activity SETVI,[17]; 40.5 g ai/ha,0
same,Pre-emerge Herbicidal Activity SETVI,[17]; 162 g ai/ha,0
same,Pre-emerge Herbicidal Activity SORHA,[18]; 40.5 g ai/ha,0
same,Pre-emerge Herbicidal Activity SORHA,[18]; 162 g ai/ha,0
same,Pre-emerge Herbicidal Activity IPOHE,[19]; 40.5 g ai/ha,0
same,Pre-emerge Herbicidal Activity IPOHE,[19]; 162 g ai/ha,20
same,Pre-emerge Herbicidal Activity DIGSA,[20]; 40.5 g ai/ha,0
same,Pre-emerge Herbicidal Activity DIGSA,[20]; 162 g ai/ha,0
same,Pre-emerge Herbicidal Activity CASOB,[21]; 40.5 g ai/ha,0
same,Pre-emerge Herbicidal Activity CASOB,[21]; 162 g ai/ha,10
same,Pre-emerge Herbicidal Activity ABUTH,[22]; 40.5 g ai/ha,70
same,Pre-emerge Herbicidal Activity ABUTH,[22]; 162 g ai/ha,100

# Source: US6355799B1, “Substituted benzene compounds, process for their preparation, and herbicidal and defoliant compositions containing them” (ISK Americas Incorporated, priority 1997, dated 2002)
